Experimental data published in the CheMixHub viscosity set.

Test: xn = mol fraction of the nth substance listed

[2H]O[2H] + Cc1cccnc1
viscosity [mPa·s], 101 kPa
Conditions	x2 = 0.0233	x2 = 0.05084	x2 = 0.08428	x2 = 0.1255
297.15 K	1.471	1.954	2.315	2.706
298.15 K	1.433	1.899	2.249	2.627
299.15 K	1.389	1.846	2.189	2.558
300.15 K	1.355	1.794	2.122	2.483
301.15 K	1.32	1.751	2.059	2.401
302.15 K	1.284	1.7	1.999	2.33
303.15 K	1.254	1.656	1.949	2.267
304.15 K	1.225	1.615	1.893	2.2
305.15 K	1.191	1.578	1.843	2.14
306.15 K	1.165	1.538	1.793	2.083
307.15 K	1.136	1.502	1.751	2.033
308.15 K	1.104	1.467	1.708	1.981
309.15 K	1.082	1.434	1.665	1.932
310.15 K	1.055	1.404	1.631	1.889
311.15 K	1.034	1.371	1.589	1.841
312.15 K	1.007	1.344	1.555	1.804
313.15 K	0.984	1.32	1.522	1.765

CCCC[P+](CC)(CC)CC.N#Cc1ccc[n-]1 + OCCN(CCO)CCO
293.15 K, 100 kPa
Conditions	viscosity [mPa·s]
x1 = 0.018	956
x1 = 0.089	975
x1 = 0.104	937
x1 = 0.223	809
x1 = 0.413	679

CN(C)c1ccccc1 + Cc1ccccc1
viscosity [mPa·s], 101 kPa
Conditions	x1 = 0.1011	x1 = 0.1961	x1 = 0.3125	x1 = 0.4011	x1 = 0.493	x1 = 0.5974	x1 = 0.701	x1 = 0.8015	x1 = 0.8983
298.15 K	0.597	0.653	0.711	0.767	0.831	0.906	0.989	1.066	1.173
303.15 K	0.561	0.604	0.668	0.714	0.77	0.834	0.911	0.988	1.07
308.15 K	0.532	0.57	0.625	0.671	0.726	0.782	0.854	0.918	0.999
313.15 K	0.499	0.536	0.586	0.619	0.664	0.726	0.78	0.851	0.914
